Measured values as given in PubChem BioAssay AID1745844 (Carcinogenic Potency Database (CPDB), 2022).
The source made the active and inactive calls. The rule behind the calls is not given here.

Tested on: rodent lifetime carcinogenesis bioassay, tumor incidence TD50
Test: carcinogenic potency in animals, long-term in vivo studies, CPDB compilation (AID 1745844)
[1] = mouse, strain Swiss albino, females, in drinking water, site: lung, lesion: several types, types named in the paper, dosed 121 weeks, study length 121 weeks

O=C(O)CCCC/C=C(\c1ccccc1)c1cccnc1
carcinogen call (mouse, strain Charles River CD1, females, in feed, site: any site (literature study), lesion: several types, types named in the paper, dosed 104 weeks, study length 104 weeks): negative (inactive)
TD50 (mouse, strain Charles River CD1, females, in feed, site: liver, lesion: hepatocellular adenoma, dosed 104 weeks, study length 104 weeks): 4930 mg/kg/day (inactive)
carcinogen call (mouse, strain Charles River CD1, females, in feed, site: lung, lesion: alveolar/bronchiolar adenoma, dosed 104 weeks, study length 104 weeks): negative (inactive)
carcinogen call (mouse, strain Charles River CD1, females, in feed, site: lung, lesion: alveolar/bronchiolar carcinoma, dosed 104 weeks, study length 104 weeks): negative (inactive)
TD50 (mouse, strain Charles River CD1, males, in feed, site: any site (literature study), lesion: several types, types named in the paper, dosed 104 weeks, study length 104 weeks): 1090 mg/kg/day (inactive)
TD50 (mouse, strain Charles River CD1, males, in feed, site: liver, lesion: hepatocellular adenoma, dosed 104 weeks, study length 104 weeks): 2050 mg/kg/day (inactive)
TD50 (mouse, strain Charles River CD1, males, in feed, site: liver, lesion: hepatocellular carcinoma, dosed 104 weeks, study length 104 weeks): 10200 mg/kg/day (inactive)
TD50 (mouse, strain Charles River CD1, males, in feed, site: lung, lesion: alveolar/bronchiolar adenoma, dosed 104 weeks, study length 104 weeks): 1220 mg/kg/day (inactive)
carcinogen call (mouse, strain Charles River CD1, males, in feed, site: lung, lesion: alveolar/bronchiolar carcinoma, dosed 104 weeks, study length 104 weeks): negative (inactive)
carcinogen call (rat, strain Charles River CD (Sprague-Dawley), females, in feed, site: liver, lesion: hepatocellular adenoma, dosed 104 weeks, study length 104 weeks): negative (inactive)
carcinogen call (rat, strain Charles River CD (Sprague-Dawley), males, in feed, site: liver, lesion: hepatocellular adenoma, dosed 104 weeks, study length 104 weeks): negative (inactive)

Cc1ccc(C)c(C)c1
TD50 (rat, strain Sprague-Dawley, females, by gavage, site: any site (literature study), lesion: malignant tumor, dosed 104 weeks, study length 123 weeks): 14300 mg/kg/day
TD50 (rat, strain Sprague-Dawley, males, by gavage, site: Zymbal's gland, lesion: carcinoma, dosed 104 weeks, study length 123 weeks): 18000 mg/kg/day
TD50 (rat, strain Sprague-Dawley, males, by gavage, site: any site (literature study), lesion: malignant tumor, dosed 104 weeks, study length 123 weeks): 13900 mg/kg/day
TD50 (rat, strain Sprague-Dawley, males, by gavage, site: any site (literature study), lesion: several types, types named in the paper, dosed 104 weeks, study length 123 weeks): 1940 mg/kg/day
TD50 (rat, strain Sprague-Dawley, males, by gavage, site: ear duct, lesion: carcinoma, dosed 104 weeks, study length 123 weeks): 18300 mg/kg/day
TD50 (rat, strain Sprague-Dawley, males, by gavage, site: head, lesion: carcinoma, dosed 104 weeks, study length 123 weeks): 4350 mg/kg/day
TD50 (rat, strain Sprague-Dawley, males, by gavage, site: nasal cavity, lesion: esthesioneuroepithelioma, dosed 104 weeks, study length 123 weeks): 18300 mg/kg/day
TD50 (rat, strain Sprague-Dawley, males, by gavage, site: oral cavity, lesion: carcinoma, dosed 104 weeks, study length 123 weeks): 18300 mg/kg/day

C=CC1CC=CCC1 (stereo not drawn)
TD50 (mouse, strain B6C3F1, females, by gavage, site: adrenal capsule, lesion: adenoma, NOS, dosed 103 weeks, study length 104 weeks): 1050 mg/kg/day
TD50 (mouse, strain B6C3F1, females, by gavage, site: any site (literature study), lesion: several types, types named in the paper, dosed 103 weeks, study length 104 weeks): 149 mg/kg/day
TD50 (mouse, strain B6C3F1, females, by gavage, site: liver, lesion: hepatocellular adenoma + hepatocellular carcinoma + neoplastic nodule, dosed 103 weeks, study length 104 weeks): 1480 mg/kg/day
TD50 (mouse, strain B6C3F1, females, by gavage, site: lung, lesion: alveolar/bronchiolar adenoma + alveolar/bronchiolar carcinoma, dosed 103 weeks, study length 104 weeks): 19000 mg/kg/day
TD50 (mouse, strain B6C3F1, females, by gavage, site: mesenteric lymph node + multiple organs + small intestine, lesion: malignant lymphoma, lymphocytic type, dosed 103 weeks, study length 104 weeks): 839 mg/kg/day
TD50 (mouse, strain B6C3F1, females, by gavage, site: ovary, lesion: granulosa-cell carcinoma + granulosa-cell tumor + mixed tumor, benign, dosed 103 weeks, study length 104 weeks): 94.4 mg/kg/day
TD50 (mouse, strain B6C3F1, females, by gavage, site: ovary, lesion: granulosa-cell carcinoma + granulosa-cell tumor, dosed 103 weeks, study length 104 weeks): 309 mg/kg/day
TD50 (mouse, strain B6C3F1, females, by gavage, site: ovary, lesion: granulosa-cell tumor, dosed 103 weeks, study length 104 weeks): 361 mg/kg/day
TD50 (mouse, strain B6C3F1, females, by gavage, site: ovary, lesion: mixed tumor, benign, dosed 103 weeks, study length 104 weeks): 106 mg/kg/day
TD50 (mouse, strain B6C3F1, males, by gavage, site: any site (literature study), lesion: several types, types named in the paper, dosed 103 weeks, study length 104 weeks): 307 mg/kg/day
TD50 (mouse, strain B6C3F1, males, by gavage, site: liver, lesion: hepatocellular adenoma + hepatocellular carcinoma + neoplastic nodule, dosed 103 weeks, study length 104 weeks): 1270 mg/kg/day
TD50 (mouse, strain B6C3F1, males, by gavage, site: lung, lesion: alveolar/bronchiolar adenoma + alveolar/bronchiolar carcinoma, dosed 103 weeks, study length 104 weeks): 490 mg/kg/day
TD50 (mouse, strain B6C3F1, males, by gavage, site: lung, lesion: alveolar/bronchiolar adenoma, dosed 103 weeks, study length 104 weeks): 926 mg/kg/day
TD50 (mouse, strain B6C3F1, males, by gavage, site: mesenteric lymph node + multiple organs + spleen, lesion: malignant lymphoma, histiocytic type + malignant lymphoma, mixed type + malignant lymphoma, lymphocytic type, dosed 103 weeks, study length 104 weeks): 623 mg/kg/day
TD50 (rat, strain Fischer 344, females, by gavage, site: any site (literature study), lesion: several types, types named in the paper, dosed 103 weeks, study length 104 weeks): 305 mg/kg/day
TD50 (rat, strain Fischer 344, females, by gavage, site: clitoral gland, lesion: adenoma, NOS + squamous-cell carcinoma, dosed 103 weeks, study length 104 weeks): 580 mg/kg/day
TD50 (rat, strain Fischer 344, females, by gavage, site: liver, lesion: hepatocellular adenoma + hepatocellular carcinoma + neoplastic nodule, dosed 103 weeks, study length 104 weeks): 3.85e+06 mg/kg/day
TD50 (rat, strain Fischer 344, males, by gavage, site: adrenal gland, lesion: pheochromocytoma + pheochromocytoma, malignant, dosed 103 weeks, study length 104 weeks): 159 mg/kg/day
TD50 (rat, strain Fischer 344, males, by gavage, site: any site (literature study), lesion: several types, types named in the paper, dosed 103 weeks, study length 104 weeks): 119 mg/kg/day
TD50 (rat, strain Fischer 344, males, by gavage, site: liver, lesion: hepatocellular adenoma + hepatocellular carcinoma + neoplastic nodule, dosed 103 weeks, study length 104 weeks): 132000 mg/kg/day
TD50 (rat, strain Fischer 344, males, by gavage, site: skin, lesion: squamous-cell carcinoma + squamous-cell papilloma, dosed 103 weeks, study length 104 weeks): 769 mg/kg/day
TD50 (rat, strain Fischer 344, males, by gavage, site: skin, lesion: squamous-cell papilloma, dosed 103 weeks, study length 104 weeks): 935 mg/kg/day
TD50 (rat, strain Fischer 344, males, by gavage, site: testis, lesion: interstitial-cell tumor, dosed 103 weeks, study length 104 weeks): 62.3 mg/kg/day

N[C@@H](CCC(=O)NNc1ccc(CO)cc1)C(=O)O
TD50 (mouse, strain Swiss albino, females, in drinking water, site: liver, lesion: angiosarcoma, dosed 121 weeks, study length 121 weeks): 2720 mg/kg/day
TD50 (mouse, strain Swiss albino, females, in drinking water, site: lung, lesion: adenoma, dosed 121 weeks, study length 121 weeks): 3290 mg/kg/day
carcinogen call [1]: negative (inactive)
TD50 (mouse, strain Swiss albino, males, in drinking water, site: liver, lesion: angiosarcoma, dosed 120 weeks, study length 120 weeks): 2040 mg/kg/day
TD50 (mouse, strain Swiss albino, males, in drinking water, site: liver, lesion: hepatoma, dosed 120 weeks, study length 120 weeks): 3310 mg/kg/day (inactive)
carcinogen call (mouse, strain Swiss albino, males, in drinking water, site: lung, lesion: several types, types named in the paper, dosed 120 weeks, study length 120 weeks): negative (inactive)

N#[N+]c1ccccc1
TD50 (hamster, strain Syrian Golden, females, by gavage, site: liver, lesion: Kupffer-cell sarcoma, dosed 90 weeks, study length 90 weeks): 66.1 mg/kg/day (inactive)
TD50 (hamster, strain Syrian Golden, females, by gavage, site: liver, lesion: cholangioma, dosed 90 weeks, study length 90 weeks): 293 mg/kg/day (inactive)
TD50 (hamster, strain Syrian Golden, females, by gavage, site: liver, lesion: hemangioma, dosed 90 weeks, study length 90 weeks): 66.1 mg/kg/day (inactive)
TD50 (hamster, strain Syrian Golden, males, by gavage, site: liver, lesion: hemangioma, dosed 90 weeks, study length 90 weeks): 293 mg/kg/day (inactive)
TD50 (mouse, strain Swiss albino, females, by gavage, site: lung, lesion: adenocarcinoma, dosed 52 weeks, study length 141 weeks): 39.4 mg/kg/day
TD50 (mouse, strain Swiss albino, females, by gavage, site: lung, lesion: adenoma, dosed 52 weeks, study length 141 weeks): 27.1 mg/kg/day
TD50 (mouse, strain Swiss albino, females, by gavage, site: lung, lesion: several types, types named in the paper, dosed 52 weeks, study length 141 weeks): 16.5 mg/kg/day
TD50 (mouse, strain Swiss albino, males, by gavage, site: lung, lesion: adenoma, dosed 52 weeks, study length 129 weeks): 14.8 mg/kg/day
TD50 (mouse, strain Swiss albino, males, by gavage, site: lung, lesion: several types, types named in the paper, dosed 52 weeks, study length 129 weeks): 12.7 mg/kg/day

O.O=S(=O)(O)O.[Cd]
carcinogen call (mouse, strain Swiss, males, by gavage, site: liver, lesion: several types, types named in the paper, dosed 78 weeks, study length 78 weeks): negative (inactive)
TD50 (mouse, strain Swiss, males, by gavage, site: lung, lesion: several types, types named in the paper, dosed 78 weeks, study length 78 weeks): 1.78 mg/kg/day (inactive)
TD50 (rat, strain C.B. hooded, males, by gavage, site: liver, lesion: liver-cell adenoma, dosed 104 weeks, study length 114 weeks): 1.17 mg/kg/day (inactive)

ClCc1ccccn1
TD50 (mouse, strain B6C3F1, females, by gavage, site: any site (literature study), lesion: several types, types named in the paper, dosed 99 weeks, study length 104 weeks): 9790 mg/kg/day (inactive)
TD50 (mouse, strain B6C3F1, females, by gavage, site: lung, lesion: alveolar/bronchiolar adenoma + alveolar/bronchiolar carcinoma, dosed 99 weeks, study length 104 weeks): 2170 mg/kg/day
carcinogen call (mouse, strain B6C3F1, males, by gavage, site: any site (literature study), lesion: several types, types named in the paper, dosed 99 weeks, study length 104 weeks): negative (inactive)
TD50 (mouse, strain B6C3F1, males, by gavage, site: lung, lesion: alveolar/bronchiolar adenoma + alveolar/bronchiolar carcinoma, dosed 99 weeks, study length 104 weeks): 2940 mg/kg/day
TD50 (rat, strain Fischer 344, females, by gavage, site: any site (literature study), lesion: several types, types named in the paper, dosed 99 weeks, study length 105 weeks): 114 mg/kg/day (inactive)
TD50 (rat, strain Fischer 344, males, by gavage, site: any site (literature study), lesion: several types, types named in the paper, dosed 99 weeks, study length 105 weeks): 671 mg/kg/day
TD50 (rat, strain Fischer 344, males, by gavage, site: subcutaneous tissue, lesion: fibroma, dosed 99 weeks, study length 105 weeks): 515 mg/kg/day (inactive)

[K+]
TD50 (rat, strain F344/DuCrj, females, in drinking water, site: submandibular salivary gland, lesion: squamous-cell carcinoma, dosed 104 weeks, study length 104 weeks): 560 mg/kg/day
TD50 (rat, strain F344/DuCrj, females, in drinking water, site: uterus, lesion: endometrial stromal polyp, dosed 104 weeks, study length 104 weeks): 204 mg/kg/day (inactive)
TD50 (rat, strain F344/DuCrj, males, in drinking water, site: submandibular salivary gland, lesion: squamous-cell carcinoma, dosed 104 weeks, study length 104 weeks): 363 mg/kg/day

NC(=O)c1ccncc1
TD50 (mouse, strain Swiss albino, females, in drinking water, site: liver, lesion: hepatoma, dosed 121 weeks, study length 121 weeks): 21300 mg/kg/day (inactive)
carcinogen call [1]: negative (inactive)
carcinogen call (mouse, strain Swiss albino, males, in drinking water, site: lung, lesion: several types, types named in the paper, dosed 117 weeks, study length 117 weeks): negative (inactive)
